Structures can show the parent of a compound that is named as a salt.
Tests used:
Format in all cases: biochemical
JAK1 = molecular target: T1, JAK1 (Homo sapiens, UniProt P23458); experiment: JAK tyrosine kinase inhibitory activity in the presence of 1 mM ATP (ELISA), JAK1
T1 construct: purchased Carna Biosciences, Inc
Procedure, shortened: (§1)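 Recombinant kinase (7.5 nM JAK1; 0.75 nM JAK2, JAK3 working dilutions) reacted 1 h at 30 °C with 1 mM ATP in Tris-HCl pH 7.5, Tween-20, DTT, on streptavidin plates. Phosphotyrosine detected by HRP anti-pTyr antibody ELISA, TMB absorbance at 450 nm; duplicate wells, DMSO as negative control.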

JAK2 = molecular target: T2, JAK2 (Homo sapiens, UniProt O60674); experiment: JAK tyrosine kinase inhibitory activity in the presence of 1 mM ATP (ELISA), JAK2
T2 construct: purchased Carna Biosciences, Inc
T2 sequence (O60674 whole entry): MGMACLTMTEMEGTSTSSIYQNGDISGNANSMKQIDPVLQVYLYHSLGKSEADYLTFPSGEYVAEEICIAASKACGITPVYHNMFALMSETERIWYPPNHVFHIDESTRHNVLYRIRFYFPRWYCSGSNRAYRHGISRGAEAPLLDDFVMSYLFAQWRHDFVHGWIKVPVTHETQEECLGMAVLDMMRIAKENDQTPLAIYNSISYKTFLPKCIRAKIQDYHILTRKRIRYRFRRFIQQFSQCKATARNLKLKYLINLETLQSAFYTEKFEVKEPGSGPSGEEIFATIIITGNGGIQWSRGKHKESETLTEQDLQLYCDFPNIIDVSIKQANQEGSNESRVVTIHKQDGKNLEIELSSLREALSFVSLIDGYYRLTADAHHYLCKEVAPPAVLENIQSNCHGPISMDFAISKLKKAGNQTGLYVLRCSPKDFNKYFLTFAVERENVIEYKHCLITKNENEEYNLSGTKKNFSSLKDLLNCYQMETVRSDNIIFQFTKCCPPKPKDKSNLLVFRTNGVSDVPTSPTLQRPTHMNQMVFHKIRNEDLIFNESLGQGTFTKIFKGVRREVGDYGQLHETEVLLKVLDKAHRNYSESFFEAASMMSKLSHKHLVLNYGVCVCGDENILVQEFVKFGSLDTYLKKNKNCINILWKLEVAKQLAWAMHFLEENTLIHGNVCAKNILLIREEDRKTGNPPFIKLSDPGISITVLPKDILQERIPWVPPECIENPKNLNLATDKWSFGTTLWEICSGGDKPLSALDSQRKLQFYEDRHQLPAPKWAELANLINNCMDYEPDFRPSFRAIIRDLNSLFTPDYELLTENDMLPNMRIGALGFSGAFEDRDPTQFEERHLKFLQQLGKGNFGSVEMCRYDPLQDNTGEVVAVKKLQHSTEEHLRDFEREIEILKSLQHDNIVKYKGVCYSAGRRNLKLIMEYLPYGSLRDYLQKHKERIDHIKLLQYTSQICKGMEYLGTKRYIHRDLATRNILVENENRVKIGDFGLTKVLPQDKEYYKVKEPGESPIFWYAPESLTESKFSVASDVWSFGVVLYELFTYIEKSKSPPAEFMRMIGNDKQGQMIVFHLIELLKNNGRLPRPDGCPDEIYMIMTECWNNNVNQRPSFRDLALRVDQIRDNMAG
Procedure, shortened: as §1

JAK3 = molecular target: T3, JAK3 (Homo sapiens, UniProt P52333); experiment: JAK tyrosine kinase inhibitory activity in the presence of 1 mM ATP (ELISA), JAK3
T3 construct: purchased Carna Biosciences, Inc
T3 sequence (P52333 1-1124): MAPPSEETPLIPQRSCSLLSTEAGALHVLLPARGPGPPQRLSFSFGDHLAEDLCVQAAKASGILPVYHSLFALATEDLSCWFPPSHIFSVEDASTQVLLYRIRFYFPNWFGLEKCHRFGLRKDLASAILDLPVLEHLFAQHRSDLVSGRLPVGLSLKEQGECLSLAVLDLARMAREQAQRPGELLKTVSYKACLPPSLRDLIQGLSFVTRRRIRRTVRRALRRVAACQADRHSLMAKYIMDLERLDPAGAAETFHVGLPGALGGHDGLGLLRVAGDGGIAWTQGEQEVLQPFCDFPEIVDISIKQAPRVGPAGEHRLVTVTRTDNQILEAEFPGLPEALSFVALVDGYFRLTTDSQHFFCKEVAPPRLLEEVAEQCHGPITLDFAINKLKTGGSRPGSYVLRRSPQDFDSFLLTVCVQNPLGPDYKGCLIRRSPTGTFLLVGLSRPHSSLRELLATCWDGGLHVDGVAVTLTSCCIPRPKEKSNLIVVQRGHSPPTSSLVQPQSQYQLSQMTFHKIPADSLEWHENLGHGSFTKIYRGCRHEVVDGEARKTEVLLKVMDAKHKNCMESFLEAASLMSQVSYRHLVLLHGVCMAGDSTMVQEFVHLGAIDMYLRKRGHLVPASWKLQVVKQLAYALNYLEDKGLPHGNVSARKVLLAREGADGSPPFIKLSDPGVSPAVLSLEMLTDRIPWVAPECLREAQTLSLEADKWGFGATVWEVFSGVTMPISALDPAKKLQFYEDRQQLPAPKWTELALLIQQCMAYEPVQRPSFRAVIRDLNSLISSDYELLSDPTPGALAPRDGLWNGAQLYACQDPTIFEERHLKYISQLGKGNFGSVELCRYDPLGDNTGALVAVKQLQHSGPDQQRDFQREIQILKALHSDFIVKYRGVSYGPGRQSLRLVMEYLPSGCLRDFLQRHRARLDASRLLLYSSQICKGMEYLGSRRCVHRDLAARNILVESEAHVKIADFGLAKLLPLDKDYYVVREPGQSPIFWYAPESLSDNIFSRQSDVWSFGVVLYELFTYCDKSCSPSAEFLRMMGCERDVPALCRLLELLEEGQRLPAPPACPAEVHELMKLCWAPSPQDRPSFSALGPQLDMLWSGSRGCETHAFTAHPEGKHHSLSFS
Procedure, shortened: as §1

T1 sequence (P23458 whole entry): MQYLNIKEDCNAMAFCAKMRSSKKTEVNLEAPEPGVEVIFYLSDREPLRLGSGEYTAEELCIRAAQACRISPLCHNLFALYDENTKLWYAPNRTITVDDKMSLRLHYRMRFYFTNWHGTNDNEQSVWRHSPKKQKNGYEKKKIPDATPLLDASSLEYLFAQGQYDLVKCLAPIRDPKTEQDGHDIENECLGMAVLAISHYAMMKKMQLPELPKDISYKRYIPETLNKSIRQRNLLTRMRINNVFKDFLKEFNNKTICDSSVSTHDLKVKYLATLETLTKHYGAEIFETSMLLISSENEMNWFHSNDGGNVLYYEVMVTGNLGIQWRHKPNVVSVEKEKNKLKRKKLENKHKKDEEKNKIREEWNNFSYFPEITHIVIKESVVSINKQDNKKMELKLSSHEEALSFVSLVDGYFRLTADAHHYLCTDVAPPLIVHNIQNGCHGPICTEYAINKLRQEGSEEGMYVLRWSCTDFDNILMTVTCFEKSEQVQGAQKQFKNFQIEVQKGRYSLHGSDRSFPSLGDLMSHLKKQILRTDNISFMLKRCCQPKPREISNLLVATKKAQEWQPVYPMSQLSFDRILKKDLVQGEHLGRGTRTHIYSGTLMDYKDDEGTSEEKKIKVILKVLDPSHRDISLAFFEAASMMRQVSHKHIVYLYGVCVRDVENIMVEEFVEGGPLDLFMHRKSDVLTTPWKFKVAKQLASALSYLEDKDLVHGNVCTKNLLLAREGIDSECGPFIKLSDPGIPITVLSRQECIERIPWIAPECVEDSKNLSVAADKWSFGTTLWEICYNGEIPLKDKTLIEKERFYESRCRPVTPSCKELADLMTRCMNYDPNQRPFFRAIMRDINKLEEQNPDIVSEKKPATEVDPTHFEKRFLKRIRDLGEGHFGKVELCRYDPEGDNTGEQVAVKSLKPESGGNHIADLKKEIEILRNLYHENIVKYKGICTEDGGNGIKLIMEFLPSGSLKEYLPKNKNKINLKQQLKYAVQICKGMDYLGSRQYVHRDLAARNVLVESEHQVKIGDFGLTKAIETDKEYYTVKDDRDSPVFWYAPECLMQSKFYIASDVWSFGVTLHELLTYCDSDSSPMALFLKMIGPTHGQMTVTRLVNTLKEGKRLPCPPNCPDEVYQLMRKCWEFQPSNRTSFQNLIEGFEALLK

Row | SMILES | IC50 (JAK1) | IC50 (JAK2) | IC50 (JAK3)
1 | C[C@@H](Nc1cc(C(=O)N2CCC(NC(=O)OCCN(C)C)CC2)nc(-c2cnn3ccsc23)n1)C(C)(C)C [Example 102, 2-(Dimethylamino)ethyl (1-{[6-{[(2R)-3,3-dimethylbutan-2-yl]amino}-2-(pyrazolo[5,1-b][1,3]thiazol-7-yl)pyrimidin-4-yl]carbonyl}piperidin-4-yl)carbamate] | 24 nM | 1300 nM | 1700 nM
2 | CO[C@H]1CCC[C@@H]1Nc1cc(C(=O)N2CCC(NC(=O)C3CC3)CC2)nc(-c2cnn3ccsc23)n1 [Example 19, N-(1-{[6-{[(1S,2S)-2-Methoxycyclopentyl]amino}-2-(pyrazolo[5,1-b][1,3]thiazol-7-yl)pyrimidin-4-yl]carbonyl}piperidin-4-yl)cyclopropanecarboxamide] | 710 nM | 4400 nM | 6500 nM
3 | CC(=O)N1CCC(Nc2cc(C(=O)N3CCC(NC(=O)C4CC4)CC3)nc(-c3cnn4ccsc34)n2)CC1 [Example 188, N-(1-6-[(l-acetylpiperidin-4-yl)amino]-2-(pyrazolo[5,1-b][1,3]thiazol-7-yl)pyrimidine-4-carbonylpiperidin-4-yl)cyclopropanecarboxamide] | 1300 nM | > 10000 nM | > 10000 nM
4 | CC(C)S(=O)(=O)N1CCC(Nc2cc(C(=O)N3CCC(NC(=O)C4CC4)CC3)nc(-c3cnn4ccsc34)n2)CC1 [Example 193, N-1-[6-[1-(propane-2-sulfonyl)piperidin-4-yl]amino-2-(pyrazolo[5,1-b][1,3]thiazol-7-yl)pyrimidine-4-carbonyl]piperidin-4-ylcyclopropanecarboxamide] | 470 nM | > 10000 nM | > 10000 nM
5 | CN(c1cc(C(=O)N2CCC(NC(=O)C3CC3)CC2)nc(-c2cnn3ccsc23)n1)[C@H]1CCC[C@@H]1OC(F)F [Example 5, N-(1-{[6-{[(1S,2S)-2-(Difluoromethoxy)cyclopentyl](methyl)amino}-2-(pyrazolo[5,1-b][1,3]thiazol-7-yl)pyrimidin-4-yl]carbonyl}piperidin-4-yl)cyclopropanecarboxamide] | 130 nM | 2500 nM | 1400 nM
6 | O=C(NC1CCN(C(=O)c2cc(NCC3CNC3)nc(-c3cnn4ccsc34)n2)CC1)C1CC1 [Example 78, N-[1-({6-[(Azetidin-3-ylmethyl)amino]-2-(pyrazolo[5,1-b][1,3]thiazol-7-yl)pyrimidin-4-yl}carbonyl)piperidin-4-yl]cyclopropanecarboxamide] | 4100 nM | > 10000 nM | > 10000 nM
7 | COC(=O)NC1CCN(C(=O)c2cc(NC3CCN(S(C)(=O)=O)CC3)nc(-c3cnn4ccsc34)n2)CC1 [Example 200, Methyl 1-[6-[1-(methanesulfonyl)piperidin-4-yl]amino-2-(pyrazolo[5,1-b][1,3]thiazol-7-yl)pyrimidine-4-carbonyl]piperidin-4-ylcarbamate] | 2400 nM | > 10000 nM | > 10000 nM
8 | C[C@@H](Nc1cc(C(=O)N2CCC(NC(=O)OCC(F)(F)F)CC2)nc(-c2cnn3ccsc23)n1)C1CC1 [Example 103, 2,2,2-Trifluoroethyl (1-{[6-{[(1R)-1-cyclopropylethyl]amino}-2-(pyrazolo[5,1-b][1,3]thiazol 7-yl)pyrimidin-4-yl]carbonyl}piperidin-4-yl)carbamate] | 140 nM | 2400 nM | 5900 nM
9 | COC(=O)NC1CCN(C(=O)c2cc(NC3CCNCC3)nc(-c3cnn4ccsc34)n2)CC1 [Example 143, Methyl (1-{[6-(piperidin-4-ylamino)-2-(pyrazolo[5,1-b][1,3]thiazol-7-yl)pyrimidin-4-yl]carbonyl}piperidin-4 yl)carbamate dihydrochloride] | 1900 nM | > 10000 nM | > 10000 nM
10 | CCC(CC)Oc1cc(C(=O)N2CCC(NC(=O)OC)CC2)nc(-c2cnn3ccsc23)n1 [Example 108, Methyl (1-{[6-(pentan-3-yloxy)-2-(pyrazolo[5,1-b][1,3]thiazol-7-yl)pyrimidin-4-yl]carbonyl}piperidin-4-yl)carbamate] | 200 nM | 2500 nM | > 10000 nM
11 | C[C@H](Nc1cc(C(=O)N2CCC(Nc3nccs3)CC2)nc(-c2cnn3ccsc23)n1)C1CC1 [Example 50, [6-{[(1S)-1-Cyclopropylethyl]amino}-2-(pyrazolo[5,1-b][1,3]thiazol-7-yl)pyrimidin-4-yl][4-(1,3-thiazol-2-ylamino)piperidin-1-yl]methanone] | 150 nM | 2000 nM | 2500 nM
12 | CCC(CC)Nc1cc(C(=O)N2CCC(NC(=O)OC)CC2)nc(-c2cnn3ccsc23)n1 [Example 109, Methyl (1-{[6-(pentan-3-ylamino)-2-(pyrazolo[5,1-b][1,3]thiazol-7-yl)pyrimidin-4-yl]carbonyl}piperidin-4-yl)carbamate] | 190 nM | 1800 nM | 2400 nM
13 | CCCCCCC(=O)NC1CCN(C(=O)c2cc(N[C@H](C)C(C)(C)C)nc(-c3cnn4ccsc34)n2)CC1 [Example 195, N-1-[6-[(2R)-3,3-dimethylbutan-2-yl]amino-2-(pyrazolo[5,1-b][1,3]thiazol-7-yl)pyrimidine-4-carbonyl]piperidin-4-ylheptanamide] | 310 nM | 9000 nM | 4900 nM
14 | COC(=O)NC1CCN(C(=O)c2cc(N[C@@H]3CCN(C(=O)C4CCC4)C3)nc(-c3cnn4ccsc34)n2)CC1 [Example 206, Methyl 1-[6-[(3R)-1-(cyclobutanecarbonyl)pyrrolidin-3-yl]amino-2-(pyrazolo[5,1-b][1,3]thiazol-7-yl)pyrimidine-4-carbonyl]piperidin-4-ylcarbamate] | 940 nM | > 10000 nM | > 10000 nM
15 | COC(=O)NC1CCN(C(=O)c2cc(OCC3CN(C(=O)OC(C)(C)C)C3)nc(-c3cnn4ccsc34)n2)CC1 [Example 164, Tert-butyl 3-([6-4-[(methoxycarbonyl)amino]piperidine-1-carbonyl-2-(pyrazolo[5,1-b][1,3]thiazol-7-yl)pyrimidin-4-yl]oxymethyl)azetidine-1-carboxylate] | 2600 nM | > 10000 nM | > 10000 nM
16 | COCC(C)(C)Nc1cc(C(=O)N2CCC(NC(=O)C3CC3)CC2)nc(-c2cnn3ccsc23)n1 [Example 38, N-[1-({6-[(1-Methoxy-2-methylpropan-2-yl)amino]-2-(pyrazolo[5,1-b][1,3]thiazol-7-yl)pyrimidin-4-yl}carbonyl)piperidin-4-yl]cyclopropanecarboxamide] | 260 nM | 1200 nM | > 10000 nM
17 | COC(=O)NC1CCN(C(=O)c2cc(NC3CCN(C(=O)CC#N)CC3)nc(-c3cnn4ccsc34)n2)CC1 [Example 199, Methyl (1-{[6-{[1-(cyanoacetyl)piperidin-4-yl]amino}-2-(pyrazolo[5,1-b][1,3]thiazol-7-yl)pyrimidin-4-yl]carbonyl}piperidin-4-yl)carbamate] | 2800 nM | > 10000 nM | > 10000 nM
18 | CCOC(=O)NC1CCN(C(=O)c2cc(N[C@@H]3CCN(C(=O)CC#N)C3)nc(-c3cnn4ccsc34)n2)CC1 [Example 203, Ethyl 1-[6-[(3R)-1-(cyanoacetyl)pyrrolidin-3-yl]amino-2-(pyrazolo[5,1-b][1,3]thiazol-7-yl)pyrimidine-4-carbonyl]piperidin-4-ylcarbamate] | 70 nM | > 10000 nM | > 10000 nM
19 | COC(=O)NC1CCN(C(=O)c2nc(-c3cnn4ccsc34)nc(N[C@H](C)C(C)(C)C)c2OC)CC1 [Example 146, Methyl (1-{[6-{[(2R)-3,3-dimethylbutan-2-yl]amino}-5-methoxy-2-(pyrazolo[5,1-b][1,3]thiazol-7-yl)pyrimidin-4-yl]carbonyl}piperidin-4-yl)carbamate] | 270 nM | 1600 nM | 1400 nM
20 | COC(=O)NC1CCN(C(=O)c2cc(N[C@H](C)c3ccc(F)cc3)nc(-c3cnn4ccsc34)n2)CC1 [Example 77, Methyl (1-{[6-{[(1R)-1-(4-fluorophenyl)ethyl]amino}-2-(pyrazolo[5,1-b][1,3]thiazol-7-yl)pyrimidin-4-yl]carbonyl}piperidin-4-yl)carbamate] | 980 nM | 3200 nM | > 10000 nM

Reference: patent US9999622B2, “Pyrazolothiazole compound and medicine comprising same” (NIPPON SHINYAKU CO., LTD., priority 2014, dated 2018)
